From patent US20210045385A1, “PYRIDAZINONE-SUBSTITUTED KETOXIMES AS HERBICIDES” (FMC Corporation, priority 2018, published 2021)

Key:
Type in all cases: in vivo
rice (Oryza sativa) = assay: Test B flooded paddy test, visual plant response rating; conditions: 250 g ai/ha, Flood, applied to paddy water, 2-leaf stage, evaluated after 13 to 15 days
Outline: (§1)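 Plants were raised to the 2-leaf stage, then pots were flooded to 3 cm above the soil and test compound was applied directly into the paddy water. Water depth was held for the whole test; after 13 to 15 days in a greenhouse, responses were scored visually against controls.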

[1] = test system: barnyardgrass (Echinochloa crus-galli); assay: as above; conditions: 250 g ai/ha, Flood, applied to paddy water, 2-leaf stage, evaluated after 13 to 15 days
Outline: as §1

[2] = test system: sedge, umbrella (small-flower umbrella sedge, Cyperus difformis); assay: as above; conditions: 250 g ai/ha, Flood, applied to paddy water, 2-leaf stage, evaluated after 13 to 15 days
Outline: as §1

[3] = test system: ducksalad (Heteranhera limosa); assay: as above; conditions: 250 g ai/ha, Flood, applied to paddy water, 2-leaf stage, evaluated after 13 to 15 days
Outline: as §1

kochia (Kochia scoparia) [4] = assay: Test A preemergence, visual plant response rating; conditions: for Kochia plant response rating: 125 g ai/ha, preemergence, 0 to 100 scale, 0 no effect, 100 complete control; for Kochia plant response rating (0 to 100 scale): 500 g ai/ha Preemergence, approx. 10 days
Outline: (§2)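 Formulated in a non-phytotoxic solvent mixture including surfactant, each test chemical was sprayed onto the soil surface after sowing, or onto seedlings 2 to 10 cm high. Roughly 10 days later, plants were compared with untreated controls and rated for injury from 0 (no effect) to 100 (complete control).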

[5] = test system: foxtail, giant (giant foxtail, Setaria faberii); assay: Test A preemergence, visual plant response rating; conditions: for Foxtail, Giant plant response rating: 125 g ai/ha, preemergence, 0 to 100 scale, 0 no effect, 100 complete control; for Foxtail, Giant plant response rating (0 to 100 scale): 500 g ai/ha Preemergence, approx. 10 days
Outline: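 Greenhouse pot test in loam–sand soil mix: compound in a surfactant-containing non-phytotoxic solvent applied preemergence (directed soil spray) or postemergence (one- to two-leaf plants, 2–10 cm). Injury scored visually after ~10 days, 0–100.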

[6] = test system: barnyardgrass (Echinochloa crus-galli); assay: Test A preemergence, visual plant response rating; conditions: for Barnyardgrass plant response rating: 125 g ai/ha, preemergence, 0 to 100 scale, 0 no effect, 100 complete control; for Barnyardgrass plant response rating (0 to 100 scale): 500 g ai/ha Preemergence, approx. 10 days
Outline: as §2

[7] = test system: pigweed (Amaranthus retroflexus); assay: Test A preemergence, visual plant response rating; conditions: for Pigweed plant response rating: 125 g ai/ha, preemergence, 0 to 100 scale, 0 no effect, 100 complete control; for Pigweed plant response rating (0 to 100 scale): 500 g ai/ha Preemergence, approx. 10 days
Outline: as §2

[8] = test system: Italian ryegrass (Lolium multiflorum); assay: Test A preemergence, visual plant response rating; conditions: for Ryegrass, Italian plant response rating: 125 g ai/ha, preemergence, 0 to 100 scale, 0 no effect, 100 complete control; for Ryegrass, Italian plant response rating (0 to 100 scale): 500 g ai/ha Preemergence, approx. 10 days
Outline: as §2

[9] = test system: ragweed (common ragweed, Ambrosia elatior); assay: Test A preemergence, visual plant response rating; conditions: for Ragweed plant response rating: 125 g ai/ha, preemergence, 0 to 100 scale, 0 no effect, 100 complete control; for Ragweed plant response rating (0 to 100 scale): 500 g ai/ha Preemergence, approx. 10 days
Outline: as §2

kochia (Kochia scoparia) [10] = assay: Test A postemergence, visual plant response rating; conditions: for Kochia plant response rating (0 to 100 scale): 500 g ai/ha, postemergence, 0 is no effect, 100 is complete control; for Kochia plant response rating: Postemergence, 125 g ai/ha, 0 to 100 scale (0 no effect, 100 complete control)
Outline: as §2

[11] = test system: galium (catchweed bedstraw, Galium aparine); assay: Test A postemergence, visual plant response rating; conditions: for Galium plant response rating (0 to 100 scale): 500 g ai/ha, postemergence, 0 is no effect, 100 is complete control; for Galium plant response rating: Postemergence, 125 g ai/ha, 0 to 100 scale (0 no effect, 100 complete control)
Outline: as §2

[12] = test system: blackgrass (Alopecurus myosuroides); assay: Test A postemergence, visual plant response rating; conditions: for Blackgrass plant response rating (0 to 100 scale): 500 g ai/ha, postemergence, 0 is no effect, 100 is complete control; for Blackgrass plant response rating: Postemergence, 125 g ai/ha, 0 to 100 scale (0 no effect, 100 complete control)
Outline: as §2

[13] = test system: wheat (Triticum aestivum); assay: Test A postemergence, visual plant response rating; conditions: for Wheat plant response rating (0 to 100 scale): 500 g ai/ha, postemergence, 0 is no effect, 100 is complete control; for Wheat plant response rating: Postemergence, 125 g ai/ha, 0 to 100 scale (0 no effect, 100 complete control)
Outline: as §2

[14] = test system: foxtail, giant (giant foxtail, Setaria faberii); assay: Test A postemergence, visual plant response rating; conditions: for Foxtail, Giant plant response rating (0 to 100 scale): 500 g ai/ha, postemergence, 0 is no effect, 100 is complete control; for Foxtail, Giant plant response rating: Postemergence, 125 g ai/ha, 0 to 100 scale (0 no effect, 100 complete control)
Outline: as §2

[15] = test system: barnyardgrass (Echinochloa crus-galli); assay: Test A postemergence, visual plant response rating; conditions: for Barnyardgrass plant response rating (0 to 100 scale): 500 g ai/ha, postemergence, 0 is no effect, 100 is complete control; for Barnyardgrass plant response rating: Postemergence, 125 g ai/ha, 0 to 100 scale (0 no effect, 100 complete control)
Outline: as §2

[16] = test system: pigweed (Amaranthus retroflexus); assay: Test A postemergence, visual plant response rating; conditions: for Pigweed plant response rating (0 to 100 scale): 500 g ai/ha, postemergence, 0 is no effect, 100 is complete control; for Pigweed plant response rating: Postemergence, 125 g ai/ha, 0 to 100 scale (0 no effect, 100 complete control)
Outline: as §2

[17] = test system: Italian ryegrass (Lolium multiflorum); assay: Test A postemergence, visual plant response rating; conditions: for Ryegrass, Italian plant response rating (0 to 100 scale): 500 g ai/ha, postemergence, 0 is no effect, 100 is complete control; for Ryegrass, Italian plant response rating: Postemergence, 125 g ai/ha, 0 to 100 scale (0 no effect, 100 complete control)
Outline: as §2

[18] = test system: ragweed (common ragweed, Ambrosia elatior); assay: Test A postemergence, visual plant response rating; conditions: for Ragweed plant response rating (0 to 100 scale): 500 g ai/ha, postemergence, 0 is no effect, 100 is complete control; for Ragweed plant response rating: Postemergence, 125 g ai/ha, 0 to 100 scale (0 no effect, 100 complete control)
Outline: as §2

corn (Zea mays) = assay: Test A postemergence, visual plant response rating; conditions: for Corn plant response rating (0 to 100 scale): 500 g ai/ha, postemergence, 0 is no effect, 100 is complete control; for Corn plant response rating: Postemergence, 125 g ai/ha, 0 to 100 scale (0 no effect, 100 complete control)
Outline: as §2

In the case of `CO/N=C(\c1cc(C)ccc1Cl)c1c(O)c(C)nn(C)c1=O` [Compound 38], the “Plant response rating, Rice (0 to 100 scale, 0 is no effect, 100 is complete control)” value (rice (Oryza sativa)) is reported as 0, the “Plant response rating, Barnyardgrass (0 to 100 scale, 0 is no effect, 100 is complete control)” value [1] is reported as 0 and the “Plant response rating, Sedge, Umbrella (0 to 100 scale, 0 is no effect, 100 is complete control)” value [2] is reported as 0. The “Plant response rating, Ducksalad (0 to 100 scale, 0 is no effect, 100 is complete control)” value [3] was 0, the “Kochia plant response rating” value (kochia (Kochia scoparia) [4]) was 0 and the “Kochia plant response rating (0 to 100 scale)” value (kochia (Kochia scoparia) [4]) was 20. For the same molecule, the “Foxtail, Giant plant response rating” value [5] was 0, the “Foxtail, Giant plant response rating (0 to 100 scale)” value (shortened to “Foxtail … (0 to 100 scale)”) [5] was 10 and the “Barnyardgrass plant response rating” value [6] was 0. For the same molecule, the “Barnyardgrass plant response rating (0 to 100 scale)” value [6] was 0, the “Pigweed plant response rating” value [7] was 0 and the “Pigweed plant response rating (0 to 100 scale)” value [7] was 0. The “Ryegrass, Italian plant response rating” value [8] was 0, the “Ryegrass, Italian plant response rating (0 to 100 scale)” value (from here on “Ryegrass … (0 to 100 scale)”) [8] was 0 and the “Ragweed plant response rating” value [9] was 30. For the same molecule, the “Ragweed plant response rating (0 to 100 scale)” value [9] was 30, the “Kochia plant response rating (0 to 100 scale)” value (kochia (Kochia scoparia) [10]) was 50 and the “Kochia plant response rating” value (kochia (Kochia scoparia) [10]) was 10. For the same molecule, the “Galium plant response rating (0 to 100 scale)” value [11] was 90, the “Galium plant response rating” value [11] was 80 and the “Blackgrass plant response rating (0 to 100 scale)” value [12] was 30. For the same molecule, the “Blackgrass plant response rating” value [12] was 10, the “Wheat plant response rating (0 to 100 scale)” value [13] was 0 and the “Wheat plant response rating” value [13] was 0. The “Foxtail … (0 to 100 scale)” value [14] was 30, the “Foxtail, Giant plant response rating” value [14] was 10 and the “Barnyardgrass plant response rating (0 to 100 scale)” value [15] was 20. For the same molecule, the “Barnyardgrass plant response rating” value [15] was 20, the “Pigweed plant response rating (0 to 100 scale)” value [16] was 60 and the “Pigweed plant response rating” value [16] was 20. For the same molecule, the “Ryegrass … (0 to 100 scale)” value [17] was 20, the “Ryegrass, Italian plant response rating” value [17] was 10 and the “Ragweed plant response rating (0 to 100 scale)” value [18] was 70. For the same molecule, the “Ragweed plant response rating” value [18] was 60, the “Corn plant response rating (0 to 100 scale)” value (corn (Zea mays)) was 20 and the “Corn plant response rating” value (corn (Zea mays)) was 10.
`CON=C(c1c(O)c(C)nn(C)c1=O)c1cccc2sccc12` [Compound 58] was tested, and the “Plant response rating, Rice (0 to 100 scale, 0 is no effect, 100 is complete control)” value (rice (Oryza sativa)) was 0, the “Plant response rating, Barnyardgrass (0 to 100 scale, 0 is no effect, 100 is complete control)” value [1] was 0 and the “Plant response rating, Sedge, Umbrella (0 to 100 scale, 0 is no effect, 100 is complete control)” value [2] was 0. The “Plant response rating, Ducksalad (0 to 100 scale, 0 is no effect, 100 is complete control)” value [3] was 0, the “Kochia plant response rating” value (kochia (Kochia scoparia) [4]) was 30 and the “Kochia plant response rating (0 to 100 scale)” value (kochia (Kochia scoparia) [4]) was 60. The “Foxtail, Giant plant response rating” value [5] was 60, the “Foxtail … (0 to 100 scale)” value [5] was 100 and the “Barnyardgrass plant response rating” value [6] was 10. The “Barnyardgrass plant response rating (0 to 100 scale)” value [6] was 60, the “Pigweed plant response rating” value [7] was 10 and the “Pigweed plant response rating (0 to 100 scale)” value [7] was 50. The “Ryegrass, Italian plant response rating” value [8] was 70, the “Ryegrass … (0 to 100 scale)” value [8] was 100 and the “Ragweed plant response rating” value [9] was 60. For the same molecule, the “Ragweed plant response rating (0 to 100 scale)” value [9] was 80, the “Kochia plant response rating (0 to 100 scale)” value (kochia (Kochia scoparia) [10]) was 70 and the “Kochia plant response rating” value (kochia (Kochia scoparia) [10]) was 60. The “Galium plant response rating (0 to 100 scale)” value [11] was 90, the “Galium plant response rating” value [11] was 80 and the “Blackgrass plant response rating (0 to 100 scale)” value [12] was 90. For the same molecule, the “Blackgrass plant response rating” value [12] was 80, the “Wheat plant response rating (0 to 100 scale)” value [13] was 80 and the “Wheat plant response rating” value [13] was 40. The “Foxtail … (0 to 100 scale)” value [14] was 80, the “Foxtail, Giant plant response rating” value [14] was 40 and the “Barnyardgrass plant response rating (0 to 100 scale)” value [15] was 50. The “Barnyardgrass plant response rating” value [15] was 20, the “Pigweed plant response rating (0 to 100 scale)” value [16] was 90 and the “Pigweed plant response rating” value [16] was 70. For the same molecule, the “Ryegrass … (0 to 100 scale)” value [17] was 90, the “Ryegrass, Italian plant response rating” value [17] was 80 and the “Ragweed plant response rating (0 to 100 scale)” value [18] was 100. For the same molecule, the “Ragweed plant response rating” value [18] was 50, the “Corn plant response rating (0 to 100 scale)” value (corn (Zea mays)) was 0 and the “Corn plant response rating” value (corn (Zea mays)) was 0.
